Key:
[1] = tested on: db/db mice (type 2 diabetic model animals); assay: Blood glucose level following 6 hours of fasting after intraperitoneal administration; type: in vivo; details: 10 mg/kg intraperitoneally daily; for increase in the fasting blood glucose level compared with control group: days 0-21, 6 hours of fasting; for average blood glucose level after 6 hours of fasting: db/db mice
Procedure: (§1) In order to more accurately measure the antidiabetic effect of sodium lobarate, 200 μl of PBS for a control group and 10 mg/kg of sodium lobarate (PTP-1b activity inhibitory compound) for a test group was administered, respectively, intraperitoneally daily to 7-week-old male db/db mice (type 2 diabetic model animals, C57/BLKS/J-db/db, the Korea Research Institute of Bioscience and Biotechnology), and the blood glucose levels of the animals were measured twice a week. Herein, measurement of the blood glucose level was performed after 6 hours of fasting after intraperitoneal injection of sodium lobarate.
as §1, with “effect of Lobarin, 200 μl” for “effect of sodium lobarate, 200 μl”, “mg/kg of Lobarin for a” for “mg/kg of sodium lobarate (PTP-1b activity inhibitory compound) for a”, “blood glucose levels was performed” for “blood glucose level was performed”, “injection of Lobarin.” for “injection of sodium lobarate.”
In order to more accurately measure the antidiabetic effect of Lobarstin, 200 μl of PBS for a control group and 10 mg/kg of Lobarstin for a test group was administered intraperitoneally daily to 7-week-old male db/db mice (type 2 diabetic model animals, C57/BLKS/J-db/db, the Korea Research Institute of Bioscience and Biotechnology), and the blood glucose levels of the animals were measured twice a week. Herein, measurement of the blood glucose levels was performed after 6 hours of fasting after intraperitoneal injection of Lobarstin.

[2] = target: T1, PTP-1b (Homo sapiens, UniProt P18031); assay: Selectivity for protein tyrosine phosphatases: PTP-1b; type: biochemical; details: at a concentration of 0.2 µM (IC50); read-out: inhibition rate against PTP-1b
T1 construct: purchased Bioneer, Korea
T1 sequence (P18031 1-435): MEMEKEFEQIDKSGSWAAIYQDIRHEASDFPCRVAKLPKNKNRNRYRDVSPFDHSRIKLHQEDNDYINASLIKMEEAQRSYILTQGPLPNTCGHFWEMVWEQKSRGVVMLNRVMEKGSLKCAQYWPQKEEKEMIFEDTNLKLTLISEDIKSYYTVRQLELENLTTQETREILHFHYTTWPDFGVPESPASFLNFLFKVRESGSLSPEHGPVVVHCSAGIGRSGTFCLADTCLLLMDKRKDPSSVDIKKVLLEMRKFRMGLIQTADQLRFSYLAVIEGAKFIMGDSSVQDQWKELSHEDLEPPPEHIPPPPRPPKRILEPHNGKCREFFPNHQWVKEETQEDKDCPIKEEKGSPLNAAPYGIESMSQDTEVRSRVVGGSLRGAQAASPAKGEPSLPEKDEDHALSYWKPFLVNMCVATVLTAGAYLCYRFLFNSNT
Procedure: In order to examine the selectivity of sodium lobarate for protein tyrosine phosphatases, the inhibitory activities of sodium lobarate against PTP-1b, PTPN2, PTPN5, PTPN6, PTPN7 and PTPN13 were examined by spectroscopically measuring the activities of the enzymes.
Specifically, to 0.5 mg/Ml of PTP-1b, PTPN2, PTPN5, PTPN6, PTPN7 or PTPN13 (Bioneer, Korea) in protein tyrosine phosphatase buffer (20 mM Tris-Hcl, pH 8.0, 0.75 mM NaCl, 0.5 mM EDTA, 5 mM β-mercaptoethanol, 50% glycerol), 0, 50, 100 or 200 nM sodium lobarate and the substrate [pTyr1146] insulin receptor (1142-1153, Sigma, USA) were added. Then, each of the mixtures was allowed to react at room temperature for 10-30 minutes, and then malachite green-molybdate dye solution (Sigma, USA) was added thereto and reacted at room temperature for 10 minutes. After completion of the reaction with the substrate, the absorbance at 620 nm was measured.
(§2) In order to examine the selectivity of Lobarin for protein tyrosine phosphatases, the inhibitory activities of Lobarin against PTP-1b, PTPN2, PTPN5, PTPN6, PTPN7 and PTPN13 were examined by spectroscopically measuring the activities of the enzymes.
Specifically, to 0.5 mg/Ml of PTP-1b, PTPN2, PTPN5, PTPN6, PTPN7 or PTPN13 (Bioneer, Korea) in protein tyrosine phosphatase buffer (20 mM Tris-Hcl, pH 8.0, 0.75 mM NaCl, 0.5 mM EDTA, 5 mM β-mercaptoethanol, 50% glycerol), 0, 50, 100 or 200 nM Lobarin and the substrate [pTyr1146] insulin receptor (1142-1153, Sigma, USA) were added. […] After completion of the reaction with the substrate, the absorbance at 620 nm was measured.
as §2, with “Lobarstin” for “Lobarin”, “enzymes. […] After completion of the reaction with the substrate, the absorbance at 620 nm was measured.” for “enzymes.”

For `CCCCCc1c(Oc2cc(OC)cc3c2C(=O)OC3(O)CCCC)c(O)cc(O)c1C(=O)O` (stereo not drawn) [Lobarin], the “increase in the fasting blood glucose level compared with control group” value (shortened to “increase”) [1] was “less than that in the control group”, the “average blood glucose level after 6 hours of fasting” value (“average blood glucose level” below) ([1]; day 0) was 152 mg/dL and the “average blood glucose level” value ([1]; day 3) was 141 mg/dL. The “average blood glucose level” value ([1]; day 7) was 155 mg/dL, the “average blood glucose level” value ([1]; day 10) was 198 mg/dL and the “average blood glucose level” value ([1]; day 14) was 261 mg/dL. The “average blood glucose level” value ([1]; day 17) was 287 mg/dL, the “average blood glucose level” value ([1]; day 21) was 340 mg/dL and the inhibition at 0.2 µM [2] was 52.2%.
In the case of `CCC/C=C1/OC(=O)c2c(Oc3c(O)cc(O)c(C(=O)O)c3CCCCC)cc(OC)cc21` [Lobarstin], the “increase” value [1] is reported as “less than that in the control group”, the “average blood glucose level” value ([1]; day 0) is reported as 134 mg/dL and the “average blood glucose level” value ([1]; day 7) is reported as 182 mg/dL. The “average blood glucose level” value ([1]; day 14) was 162 mg/dL, the “average blood glucose level” value ([1]; day 21) was 204 mg/dL and the inhibition at 0.2 µM [2] was 48%.
`CCCCCc1c2c(cc(O)c1C(=O)[O-])OC(=O)c1c(cc(OC)cc1C(=O)CCCC)O2.[Na+]` [sodium lobarate] was tested, and the “increase” value [1] was “less than that in the control group”, the “average blood glucose level” value ([1]; day 0) was 141 mg/dL and the “average blood glucose level” value ([1]; day 3) was 142 mg/dL. The “average blood glucose level” value ([1]; day 7) was 185 mg/dL, the “average blood glucose level” value ([1]; day 10) was 206 mg/dL and the “average blood glucose level” value ([1]; day 14) was 232 mg/dL. The “average blood glucose level” value ([1]; day 17) was 236 mg/dL, the “average blood glucose level” value ([1]; day 21) was 313 mg/dL and the inhibition at 0.2 µM [2] was 50%.

Reference: patent US8846750B2, “Pharmaceutical and food compositions for preventing or treating diabetes or obesity” (Korea Ocean Research and Development Institute, priority 2010, dated 2014)
